Data taken from US20230107642A1 (Erasca, Inc., priority 2020, published 2023).

molecular target: T1, Cys12 of the KRAS 4B G12C protein (Homo sapiens, UniProt P01116, G12C); test: In vitro covalent adduct formation (CAF) assay, LC-MS intact mass; type: binding; conditions: 10 uM compound, 60 min
T1 construct: This protein contained 188 amino acids in total, including an N-terminal 6-Histidine tag; made in house; host or cells: E. coli BL21
How it was run: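 Percent covalent modification from intact-mass LC-MS, by relative free versus adducted protein (adducts within 1 Da of expected mass). Reaction: 10 μM compound with 5 μM E. coli-expressed, GDP-exchanged KRAS 4B G12C in TBS pH 7.4, 4% DMSO, 1 h at 22° C.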

Compared with `C=CC(=O)N1C2CCC1CN(c1nc(=O)n3c4c(c(-c5cc(Cl)c(F)cc5F)c(C(F)(F)F)cc14)SCC1(COC1)C3)C2` [Example 1401, (R)-8′-((1R,5S)-8-acryloyl-3,8-diazabicyclo[3.2.1]octan-3-yl)-11′-(5-chloro-2,4-difluorophenyl)-10′-(trifluoromethyl)-2′H,4′H,6′H-spiro[oxetane-3,3′-[1,4]thiazepino[2,3,4-ij]quinazolin]-6′-one], `C=CC(=O)N1C[C@H](C)N(c2nc(=O)n3c4c(c(-c5cc(Cl)c(F)cc5F)c(C(F)(F)F)cc24)SCC2(CCOCC2)C3)C[C@H]1C` [Example 1435, 8′-((2S,5R)-4-acryloyl-2,5-dimethylpiperazin-1-yl)-11′-(5-chloro-2,4-difluorophenyl)-10′-(trifluoromethyl)-2,3,5,6-tetrahydro-2′H,4′H,6′H-spiro[pyran-4,3′-[1,4]thiazepino[2,3,4-ij]quinazolin]-6′-one] is higher in “% CAF 10 uM @ 60 min” value: 76.6% for the first, 84% for the second.

Going from `C=CC(=O)N1C2CCC1CN(c1nc(=O)n3c4c(c(-c5cc(Cl)c(F)cc5F)c(C(F)(F)F)cc14)SCC1(COC1)C3)C2` [Example 1402, (S)-8′-((1R,5S)-8-acryloyl-3,8-diazabicyclo[3.2.1]octan-3-yl)-11′-(5-chloro-2,4-difluorophenyl)-10′-(trifluoromethyl)-2′H,4′H,6′H-spiro[oxetane-3,3′-[1,4]thiazepino[2,3,4-ij]quinazolin-6′-one] to `C=CC(=O)N1C[C@H](C)N(c2nc(=O)n3c4c(c(-c5cc(Br)c(F)cc5F)c(C(F)(F)F)cc24)SCC2(COC2)C3)C[C@H]1C` [Example 1436, 8′-((2S,5R)-4-acryloyl-2,5-dimethylpiperazin-1-yl)-11′-(5-bromo-2,4-difluorophenyl)-10′-(trifluoromethyl)-2′H,4′H,6′H-spiro[oxetane-3,3′-[1,4]thiazepino[2,3,4-ij]quinazolin]-6′-one], the “% CAF 10 uM @ 60 min” value rises from 6.8% to 81%.

First: C=CC(=O)N1[C@@H]2CC[C@H]1CN(c1nc(=O)n3c4c(c(-c5cc(Cl)c(F)cc5F)c(C(F)(F)F)cc14)SC[C@@H]3CN1CCN(CC)CC1)C2 [Example 1403, (3S)-7-((1R,5S)-8-acryloyl-3,8-diazabicyclo[3.2.1]octan-3-yl)-10-(5-chloro-2,4-difluorophenyl)-3-((4-ethylpiperazin-1-yl)methyl)-9-(trifluoromethyl)-2,3-dihydro-5H-[1,4]thiazino[2,3,4-ij]quinazolin-5-one]
Second: C=CC(=O)N1[C@H](C)CN(c2nc(=O)n3c4c(c(-c5cc(Cl)c(F)cc5F)c(C(F)(F)F)cc24)SC[C@@H](N2CCCC2)C3)C[C@@H]1C [Example 1422, (3S)-8-((3S,5R)-4-acryloyl-3,5-dimethylpiperazin-1-yl)-11-(5-chloro-2,4-difluorophenyl)-3-(pyrrolidin-1-yl)-10-(trifluoromethyl)-3,4-dihydro-2H,6H-[1,4]thiazepino[2,3,4-ij]quinazolin-6-one]
The “% CAF 10 uM @ 60 min” value of the first is lower: 80.3% for the first, 94.1% for the second.

First: C=CC(=O)N1[C@H](C)CN(c2nc(=O)n3c4c(c(-c5ccc(F)cc5)c(C(F)(F)F)cc24)SC[C@@H](COC)C3)C[C@@H]1C [Example 1407, (R)-8-((3S,5R)-4-acryloyl-3,5-dimethylpiperazin-1-yl)-11-(4-fluorophenyl)-3-(methoxymethyl)-10-(trifluoromethyl)-3,4-dihydro-2H,6H-[1,4]thiazepino[2,3,4-ij]quinazolin-6-one]
Second: C=CC(=O)N1[C@H](C)CN(c2nc(=O)n3c4c(c(-c5ccc(F)cc5)c(C(F)(F)F)cc24)SC[C@H](COC)C3)C[C@@H]1C [Example 1408, (S)-8-((3S,5R)-4-acryloyl-3,5-dimethylpiperazin-1-yl)-11-(4-fluorophenyl)-3-(methoxymethyl)-10-(trifluoromethyl)-3,4-dihydro-2H,6H-[1,4]thiazepino[2,3,4-ij]quinazolin-6-one]
The “% CAF 10 uM @ 60 min” value of the first is higher: 92.7% for the first, 83.7% for the second.

Going from `C=CC(=O)N1[C@H](C)CN(c2nc(=O)n3c4c(c(-c5ccc(F)cc5)c(C(F)(F)F)cc24)SCC(COC)(COC)C3)C[C@@H]1C` [Example 1409, 8-((3S,5R)-4-acryloyl-3,5-dimethylpiperazin-1-yl)-11-(4-fluorophenyl)-3,3-bis(methoxymethyl)-10-(trifluoromethyl)-3,4-dihydro-[1,4]thiazepino[2,3,4-ij]quinazolin-6(2H)-one] to `C=CC(=O)N1[C@H](C)CN(c2nc(=O)n3c4c(c(-c5ccc(F)cc5)c(C(F)(F)F)cc24)SCC(CO)(CO)C3)C[C@@H]1C` [Example 1430, 8-((3S,5R)-4-acryloyl-3,5-dimethylpiperazin-1-yl)-11-(4-fluorophenyl)-3,3-bis(hydroxymethyl)-10-(trifluoromethyl)-3,4-dihydro-2H,6H-[1,4]thiazepino[2,3,4-ij]quinazolin-6-one], the “% CAF 10 uM @ 60 min” value falls from 96.5% to 93%.

First: C=CC(=O)N1[C@H](C)CN(c2nc(=O)n3c4c(c(-c5cc(Cl)c(F)cc5F)c(C(F)(F)F)cc24)SCC(COC)(COC)C3)C[C@@H]1C [Example 1410, 8-((3S,5R)-4-acryloyl-3,5-dimethylpiperazin-1-yl)-11-(5-chloro-2,4-difluorophenyl)-3,3-bis(methoxymethyl)-10-(trifluoromethyl)-3,4-dihydro-2H,6H-[1,4]thiazepino[2,3,4-ij]quinazolin-6-one]
Second: C=CC(=O)N1[C@H](C)CN(c2nc(=O)n3c4c(c(-c5cc(Cl)c(F)cc5F)c(C(F)(F)F)cc24)SCC(CO)(CO)C3)C[C@@H]1C [Example 1437, 8-((3S,5R)-4-acryloyl-3,5-dimethylpiperazin-1-yl)-11-(5-chloro-2,4-difluorophenyl)-3,3-bis(hydroxymethyl)-10-(trifluoromethyl)-3,4-dihydro-2H,6H-[1,4]thiazepino[2,3,4-ij]quinazolin-6-one]
The “% CAF 10 uM @ 60 min” value of the first is higher: 95.3% for the first, 87% for the second.

Going from `[2H]C([2H])([2H])OC[C@H]1CSc2c(-c3ccc(F)cc3)c(C(F)(F)F)cc3c(N4C[C@@H](C)N(C(=O)C=C)[C@@H](C)C4)nc(=O)n1c23` [Example 1413, (S)-7-((3S,5R)-4-acryloyl-3,5-dimethylpiperazin-1-yl)-10-(4-fluorophenyl)-3-((methoxy-d3)methyl)-9-(trifluoromethyl)-2,3-dihydro-5H-[1,4]thiazino[2,3,4-ij]quinazolin-5-one] to `C=CC(=O)N1[C@H](C)CN(c2nc(=O)n3c4c(c(-c5ccc(F)cc5)c(C(F)(F)F)cc24)SC[C@@H]3COCC)C[C@@H]1C` [Example 1415, (S)-7-((3S,5R)-4-acryloyl-3,5-dimethylpiperazin-1-yl)-3-(ethoxymethyl)-10-(4-fluorophenyl)-9-(trifluoromethyl)-2,3-dihydro-5H-[1,4]thiazino[2,3,4-ij]quinazolin-5-one], the “% CAF 10 uM @ 60 min” value falls from 95.1% to 90.1%.

First: C=CC(=O)N1[C@H](C)CN(c2nc(=O)n3c4c(c(-c5ccc(F)cc5F)c(C(F)(F)F)cc24)SC[C@@H]3COCC)C[C@@H]1C [Example 1414, (3S)-7-((3S,5R)-4-acryloyl-3,5-dimethylpiperazin-1-yl)-10-(2,4-difluorophenyl)-3-(ethoxymethyl)-9-(trifluoromethyl)-2,3-dihydro-5H-[1,4]thiazino[2,3,4-ij]quinazolin-5-one]
Second: [2H]C([2H])([2H])OC[C@H]1CSc2c(-c3ccc(F)cc3F)c(C(F)(F)F)cc3c(N4C[C@@H](C)N(C(=O)C=C)[C@@H](C)C4)nc(=O)n1c23 [Example 1418, (3S)-7-((3S,5R)-4-acryloyl-3,5-dimethylpiperazin-1-yl)-10-(2,4-difluorophenyl)-3-((methoxy-d3)methyl)-9-(trifluoromethyl)-2,3-dihydro-5H-[1,4]thiazino[2,3,4-ij]quinazolin-5-one]
The “% CAF 10 uM @ 60 min” value of the first is lower: 91.8% for the first, 95.4% for the second.

First: [2H]C([2H])([2H])OC[C@H]1CSc2c(-c3cc(Cl)c(F)cc3F)c(C(F)(F)F)cc3c(N4C[C@@H](C)N(C(=O)C=C)[C@@H](C)C4)nc(=O)n1c23 [Example 1417, (3S)-7-((3S,5R)-4-acryloyl-3,5-dimethylpiperazin-1-yl)-10-(5-chloro-2,4-difluorophenyl)-3-((methoxy-d3)methyl)-9-(trifluoromethyl)-2,3-dihydro-5H-[1,4]thiazino[2,3,4-ij]quinazolin-5-one]
Second: C=CC(=O)N1[C@H](C)CN(c2nc(=O)n3c4c(c(-c5ccc(F)cc5F)c(C(F)(F)F)cc24)SC[C@@H]3C)C[C@@H]1C [Example 1427, (3S)-7-((3S,5R)-4-acryloyl-3,5-dimethylpiperazin-1-yl)-10-(2,4-difluorophenyl)-3-methyl-9-(trifluoromethyl)-2,3-dihydro-5H-[1,4]thiazino[2,3,4-ij]quinazolin-5-one]
The “% CAF 10 uM @ 60 min” value of the first is lower: 92.5% for the first, 95% for the second.

First: C=CC(=O)N1[C@H](C)CN(c2nc(=O)n3c4c(c(-c5ccc(F)cc5)c(C(F)(F)F)cc24)SC[C@@H]3C)C[C@@H]1C [Example 1419, (S)-7-((3S,5R)-4-acryloyl-3,5-dimethylpiperazin-1-yl)-10-(4-fluorophenyl)-3-methyl-9-(trifluoromethyl)-2H-[1,4]thiazino[2,3,4-ij]quinazolin-5(3H)-one]
Second: C=CC(=O)N1C[C@H](C)N(c2nc(=O)n3c4c(c(-c5cc(C=O)c(F)cc5F)c(C(F)(F)F)cc24)SCC2(COC2)C3)C[C@H]1C [Example 1425, 5-(8′-((2S,5R)-4-acryloyl-2,5-dimethylpiperazin-1-yl)-6′-oxo-10′-(trifluoromethyl)-2′H,4′H,6′H-spiro[oxetane-3,3′-[1,4]thiazepino[2,3,4-ij]quinazolin]-11′-yl)-2,4-difluorobenzaldehyde]
The “% CAF 10 uM @ 60 min” value of the first is higher: 95.7% for the first, 69.2% for the second.

With `C=CC(=O)N1C[C@H](C)N(c2nc(=O)n3c4c(c(-c5cc(C(OC)OC)c(F)cc5F)c(C(F)(F)F)cc24)SCC2(COC2)C3)C[C@H]1C` [Example 1426, 8′-((2S,5R)-4-acryloyl-2,5-dimethylpiperazin-1-yl)-11′-(5-(dimethoxymethyl)-2,4-difluorophenyl)-10′-(trifluoromethyl)-2′H,4′H,6′H-spiro[oxetane-3,3′-[1,4]thiazepino[2,3,4-ij]quinazolin]-6′-one] the “% CAF 10 uM @ 60 min” value was 76%.
